For this test, the target named is full-length ATR (Homo sapiens (Human), UniProt Q13535). The test can be described thus: ATR Inhibition Assay (radioactive-phosphate incorporation). The format is biochemical. The note with it: read-out: ATR Ki. The essentials: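 Ki(app) was derived by non-linear regression of background-corrected initial rates of 33P incorporation into an 800 μM target peptide, read by phosphocellulose filter scintillation counting. Reaction conditions: 5 nM full-length ATR, 10 μM [γ-33P]ATP, pH 7.5 Tris buffer with MgCl2 and DTT, 25 °C, 10-min preincubation, 24 h run.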
Sequence of full-length ATR (Q13535 whole entry): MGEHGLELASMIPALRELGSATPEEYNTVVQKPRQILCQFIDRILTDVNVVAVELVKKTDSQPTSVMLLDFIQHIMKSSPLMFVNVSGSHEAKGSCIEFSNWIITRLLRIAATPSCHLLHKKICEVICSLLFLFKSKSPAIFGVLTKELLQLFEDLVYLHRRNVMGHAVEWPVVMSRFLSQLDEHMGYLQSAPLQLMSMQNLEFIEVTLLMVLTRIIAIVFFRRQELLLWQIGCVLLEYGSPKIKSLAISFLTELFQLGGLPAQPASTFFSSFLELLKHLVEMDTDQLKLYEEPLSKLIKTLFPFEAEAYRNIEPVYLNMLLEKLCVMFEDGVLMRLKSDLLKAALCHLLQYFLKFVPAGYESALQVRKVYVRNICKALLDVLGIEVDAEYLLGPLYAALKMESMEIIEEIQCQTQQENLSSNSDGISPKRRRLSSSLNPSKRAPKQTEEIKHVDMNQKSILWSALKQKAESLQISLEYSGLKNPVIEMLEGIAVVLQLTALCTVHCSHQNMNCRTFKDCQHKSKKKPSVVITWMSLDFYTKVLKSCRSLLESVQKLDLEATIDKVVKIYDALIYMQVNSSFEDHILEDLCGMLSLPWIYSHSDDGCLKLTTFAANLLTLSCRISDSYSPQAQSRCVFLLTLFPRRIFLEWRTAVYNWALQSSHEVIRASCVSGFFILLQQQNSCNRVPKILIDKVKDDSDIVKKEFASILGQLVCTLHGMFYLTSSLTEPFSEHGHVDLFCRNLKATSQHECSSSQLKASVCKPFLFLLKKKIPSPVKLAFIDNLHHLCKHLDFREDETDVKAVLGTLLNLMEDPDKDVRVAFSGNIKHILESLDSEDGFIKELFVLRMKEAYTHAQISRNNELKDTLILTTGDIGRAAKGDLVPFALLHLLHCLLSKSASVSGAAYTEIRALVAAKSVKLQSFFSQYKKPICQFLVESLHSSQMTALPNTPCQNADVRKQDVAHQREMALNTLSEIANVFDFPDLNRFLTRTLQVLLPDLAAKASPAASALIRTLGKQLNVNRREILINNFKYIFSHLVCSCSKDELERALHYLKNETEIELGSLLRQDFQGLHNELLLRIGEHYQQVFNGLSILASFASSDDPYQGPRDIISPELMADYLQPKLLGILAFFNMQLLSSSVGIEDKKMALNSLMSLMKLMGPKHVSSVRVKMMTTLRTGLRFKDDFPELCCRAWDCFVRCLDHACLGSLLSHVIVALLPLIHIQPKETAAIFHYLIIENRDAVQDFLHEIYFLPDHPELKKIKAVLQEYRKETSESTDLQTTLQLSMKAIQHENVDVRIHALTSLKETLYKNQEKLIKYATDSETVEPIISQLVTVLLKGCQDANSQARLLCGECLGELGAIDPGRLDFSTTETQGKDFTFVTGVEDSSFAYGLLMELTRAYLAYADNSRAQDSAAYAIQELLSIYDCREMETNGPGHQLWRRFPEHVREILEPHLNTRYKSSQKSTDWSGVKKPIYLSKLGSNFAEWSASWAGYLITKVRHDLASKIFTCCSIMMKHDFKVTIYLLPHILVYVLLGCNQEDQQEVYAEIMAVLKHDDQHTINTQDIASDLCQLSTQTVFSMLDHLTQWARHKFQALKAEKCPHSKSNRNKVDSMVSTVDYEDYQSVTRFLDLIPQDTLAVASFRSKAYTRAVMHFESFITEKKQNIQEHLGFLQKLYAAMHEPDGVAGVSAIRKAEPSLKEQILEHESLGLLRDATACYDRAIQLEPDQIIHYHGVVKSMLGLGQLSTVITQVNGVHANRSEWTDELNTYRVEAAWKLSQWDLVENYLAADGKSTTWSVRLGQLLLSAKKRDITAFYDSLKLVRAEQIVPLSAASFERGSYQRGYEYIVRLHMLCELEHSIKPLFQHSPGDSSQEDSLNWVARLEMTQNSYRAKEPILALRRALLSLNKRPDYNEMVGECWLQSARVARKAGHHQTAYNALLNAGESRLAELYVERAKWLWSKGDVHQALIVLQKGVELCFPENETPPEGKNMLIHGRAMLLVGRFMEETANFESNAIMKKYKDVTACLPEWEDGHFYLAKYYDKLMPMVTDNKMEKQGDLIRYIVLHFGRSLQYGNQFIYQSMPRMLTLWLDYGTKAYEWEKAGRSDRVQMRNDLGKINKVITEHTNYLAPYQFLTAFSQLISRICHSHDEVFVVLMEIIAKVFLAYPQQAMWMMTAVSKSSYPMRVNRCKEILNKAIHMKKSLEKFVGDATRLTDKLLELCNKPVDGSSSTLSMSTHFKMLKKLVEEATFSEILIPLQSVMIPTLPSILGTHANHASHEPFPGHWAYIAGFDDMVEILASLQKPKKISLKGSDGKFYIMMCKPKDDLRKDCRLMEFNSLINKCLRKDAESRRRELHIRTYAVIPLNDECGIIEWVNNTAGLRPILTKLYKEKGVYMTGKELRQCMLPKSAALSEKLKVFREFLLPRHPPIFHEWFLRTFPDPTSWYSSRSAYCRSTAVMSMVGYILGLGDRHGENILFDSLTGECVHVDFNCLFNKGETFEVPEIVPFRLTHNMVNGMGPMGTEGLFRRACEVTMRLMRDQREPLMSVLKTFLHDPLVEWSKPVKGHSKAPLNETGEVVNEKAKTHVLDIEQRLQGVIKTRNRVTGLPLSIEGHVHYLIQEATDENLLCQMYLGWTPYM

Turning to `CN(C)C(=O)c1ccc(-c2cnc(N)c(-c3nnc(NCc4ccccc4)o3)n2)cc1` [IA-55, 4-(5-amino-6-(5-(benzylamino)-1,3,4-oxadiazol-2-yl)pyrazin-2-yl)-N,N-dimethylbenzamide], the Ki was in the range of 100 to 5000 nM.
`CC(C)S(=O)(=O)c1ccc(-c2cnc(N)c(-c3nnc(C(=O)NCC4CCCNC4)o3)n2)cc1` (stereo not drawn) [IA-255, 5-[3-amino-6-(4-isopropylsulfonylphenyl)pyrazin-2-yl]-N-(3-piperidylmethyl)-1,3,4-oxadiazole-2-carboxamide]: the Ki fell in the range of 100 to 5000 nM.
The result for `Nc1ncc(-c2cccc(C(=O)N3CCC(CO)CC3)c2)nc1C(=O)Nc1ccccc1` [Compound I-50, 3-amino-6-(3-(4-(hydroxymethyl)piperidine-1-carbonyl)phenyl)-N-phenylpyrazine-2-carboxamide] reads 100 to 5000 nM; that for `Nc1ncc(-c2ccc(S(=O)(=O)N3CCC3)cc2)nc1-c1nnc(-c2ccccc2)o1` [IA-112, 5-[4-(azetidin-1-ylsulfonyl)phenyl]-3-(5-phenyl-1,3,4-oxadiazol-2-yl)pyrazin-2-amine], ≤ 10 nM; that for `CN(C)C(=O)c1ccc(-c2cnc(N)c(-c3nnc(-c4ccc(O)cc4)o3)n2)cc1` [IA-87, 4-[5-amino-6-[5-(4-hydroxyphenyl)-1,3,4-oxadiazol-2-yl]pyrazin-2-yl]-N,N-dimethyl-benzamide], ≤ 10 nM.
`CC(C)S(=O)(=O)c1ccc(-c2cnc(N)c(-c3nnc(-c4cccc(CN(C)C)c4)o3)n2)cc1` [IA-204, 3-[5-[3-(dimethylaminomethyl)phenyl]-1,3,4-oxadiazol-2-yl]-5-(4-isopropylsulfonylphenyl)pyrazin-2-amine]: the Ki lay within 10 to 100 nM.
As to `N#Cc1cc(C(=O)N2CCCNCC2)ccc1-c1cnc(N)c(-c2nnc(-c3ccccc3)s2)n1` [IVA-2, 2-[5-amino-6-(5-phenyl-1,3,4-thiadiazol-2-yl)pyrazin-2-yl]-5-(1,4-diazepane-1-carbonyl)benzonitrile], the Ki is ≤ 10 nM.
The result for `CN(C)C(=O)c1ccc(-c2cnc(N)c(-c3nnc(-c4cccnc4)o3)n2)cc1` [IA-41] reads 10 to 100 nM.
As for `CC(C)(C)CC(=O)N1CCCN(C(=O)c2ccc(-c3cnc(N)c(-c4nnc(-c5ccccc5)o4)n3)cc2)CC1` [IA-31], the Ki is ≤ 10 nM.
`CNCc1ccc(-c2nnc(-c3nc(-c4ccc(S(=O)(=O)C(C)C)cc4)cnc3N)o2)cc1O` [IA-320, 5-[5-[3-amino-6-(4-isopropylsulfonylphenyl)pyrazin-2-yl]-1,3,4-oxadiazol-2-yl]-2-(methylaminomethyl)phenol]: the Ki is ≤ 10 nM.
The value for `CC1CN(C(=O)c2ccc(-c3cnc(N)c(-c4nnc(-c5ccccc5)o4)n3)cc2)CCN1` (stereo not drawn) [IA-17] was 10 to 100 nM; that for `COc1cccc(NC(=O)c2nc(-c3cccnc3)cnc2N)c1` [Compound I-86, 3-amino-N-(3-methoxyphenyl)-6-(pyridin-3-yl)pyrazine-2-carboxamide] was 10 to 100 nM.
The value for `Nc1ncc(-c2cccnc2)nc1C(=O)Nc1ccc2[nH]ccc2c1` [Compound I-104, 3-amino-N-(1H-indol-5-yl)-6-(pyridin-3-yl)pyrazine-2-carboxamide] was 10 to 100 nM; that for `CNCc1ccc(-c2nnc(-c3nc(-c4ccc(S(=O)(=O)C(C)C)cc4)cnc3N)o2)c(F)c1` [IA-130, 3-[5-[2-fluoro-4-(methylaminomethyl)phenyl]-1,3,4-oxadiazol-2-yl]-5-(4-isopropylsulfonylphenyl)pyrazin-2-amine] was ≤ 10 nM.
The result for `CC(CCO)S(=O)(=O)c1ccc(-c2cnc(N)c(-c3nnc(-c4ccccc4F)o3)n2)cc1` (stereo not drawn) [IA-339, 3-[4-[5-amino-6-[5-(2-fluorophenyl)-1,3,4-oxadiazol-2-yl]pyrazin-2-yl]phenyl]sulfonylbutan-1-ol] reads ≤ 10 nM.
For the molecule `CC(C)S(=O)(=O)c1ccc(-c2cnc(N)c(-c3nnc(NC(=O)C(C)(C)N)o3)n2)cc1` [IA-219, 2-amino-N-[5-[3-amino-6-(4-isopropylsulfonylphenyl)pyrazin-2-yl]-1,3,4-oxadiazol-2-yl]-2-methyl-propanamide], the Ki lay within 100 to 5000 nM.
As for `Cc1csc(-c2nnc(-c3nc(-c4ccc(C(=O)N(C)C)cc4)cnc3N)o2)c1` [IA-246, 4-[5-amino-6-[5-(4-methyl-2-thienyl)-1,3,4-oxadiazol-2-yl]pyrazin-2-yl]-N,N-dimethyl-benzamide], the Ki is ≤ 10 nM.
The result for `CNCc1ccc(-c2nnc(-c3nc(-c4ccc(S(=O)(=O)N(C)C)cc4)cnc3N)o2)cc1` [IA-296, 4-[5-amino-6-[5-[4-(methylaminomethyl)phenyl]-1,3,4-oxadiazol-2-yl]pyrazin-2-yl]-N,N-dimethyl-benzenesulfonamide] reads ≤ 10 nM; that for `CN(C)C(=O)c1ccc(-c2cnc(N)c(-c3nnc(-c4ccccc4)o3)n2)cc1` [IA-23, 4-(5-amino-6-(5-phenyl-1,3,4-oxadiazol-2-yl)pyrazin-2-yl)-N,N-dimethylbenzamide], ≤ 10 nM; that for `Nc1ncc(-c2cccc(C(=O)N3CCNCC3)c2)nc1C(=O)Nc1ccccc1` [Compound I-53, 3-amino-N-phenyl-6-(3-(piperazine-1-carbonyl)phenyl) pyrazine-2-carboxamide], 100 to 5000 nM.
On to `CN(C)C(=O)c1ccc(-c2cnc(N)c(-c3nnc(-c4ccccc4OCCN)o3)n2)cc1` [IA-213, 4-[5-amino-6-[5-[2-(2-aminoethoxy)phenyl]-1,3,4-oxadiazol-2-yl]pyrazin-2-yl]-N,N-dimethyl-benzamide], for which the Ki was in the range of 10 to 100 nM.
Take `Cc1ccc2nc(-c3nc(-c4ccc(C(=O)N5CCNCC5)cc4)cnc3N)[nH]c2c1` [Compound I-149, (4-(5-amino-6-(6-methyl-1H-benzo[d]imidazol-2-yl)pyrazin-2-yl)phenyl)(piperazin-1-yl)methanone]: the Ki was 10 to 100 nM.
With `CN(C)CCNc1cc(-c2cnc(N)c(-c3nnc(-c4ccccc4)o3)n2)ccn1` [IA-265, N′-[4-[5-amino-6-(5-phenyl-1,3,4-oxadiazol-2-yl)pyrazin-2-yl]-2-pyridyl]-N,N-dimethyl-ethane-1,2-diamine], the Ki lay within 100 to 5000 nM.
The result for “(R)-3-amino-N-phenyl-6-(4-(2-(pyrrolidin-1-ylmethyl)pyrrolidine-1-carbonyl)phenyl)pyrazine-2-carboxamide [Compound I-42]” reads 100 to 5000 nM; that for `CNCc1ccc(-c2nnc(-c3nc(-c4ccc(S(=O)(=O)C(C)CC(C)(C)O)cc4)cnc3N)o2)c(F)c1` (stereo not drawn) [IA-328, 4-[4-[5-amino-6-[5-[2-fluoro-4-(methylaminomethyl)phenyl]-1,3,4-oxadiazol-2-yl]pyrazin-2-yl]phenyl]sulfonyl-2-methyl-pentan-2-ol], ≤ 10 nM.
The result for `Nc1ncc(-c2ccc(C(=O)N3CCNCC3)cc2)nc1-c1nnc(-c2ccccc2)o1` [IA-12] reads 10 to 100 nM; that for `CN(C)C1CCN(C(=O)c2ccc(-c3cnc(N)c(C(=O)Nc4ccccc4)n3)cc2)CC1` [Compound I-80, 3-amino-6-(4-(4-(dimethylamino)piperidine-1-carbonyl)phenyl)-N-phenylpyrazine-2-carboxamide], 10 to 100 nM.
As to `Cc1ccccc1-c1nnc(-c2nc(-c3ccc(C(=O)N(C)C)cc3)cnc2N)o1` [IA-71, 4-[5-amino-6-[5-(o-tolyl)-1,3,4-oxadiazol-2-yl]pyrazin-2-yl]-N,N-dimethyl-benzamide], the Ki was ≤ 10 nM.
The result for `CCC(C)S(=O)(=O)c1ccc(-c2cnc(N)c(-c3nnc(-c4ccc(CNC)cc4)o3)n2)cc1` (stereo not drawn) [IA-313, 3-[5-[4-(methylaminomethyl)phenyl]-1,3,4-oxadiazol-2-yl]-5-(4-sec-butylsulfonylphenyl)pyrazin-2-amine] reads ≤ 10 nM.
Consider `CS(=O)(=O)c1cccc(-c2cnc(N)c(C(=O)Nc3ccccc3)n2)c1` [Compound I-3], for which the Ki was in the range of 100 to 5000 nM.
The value for `CS(=O)(=O)c1ccc(-c2cnc(N)c(-c3nc4ccccc4s3)n2)cc1` [Compound I-146, 3-(benzo[d]thiazol-2-yl)-5-(4-(methylsulfonyl)phenyl)pyrazin-2-amine] was 10 to 100 nM.
The value for `CN(C)C(=O)c1ccc(-c2cnc(N)c(-c3nnc(-c4ccccn4)o3)n2)cc1` [IA-51] was 10 to 100 nM; that for `Nc1ncc(-c2ccc(C(=O)N3CCCNCC3)cc2)nc1C(=O)Nc1nc2ccccc2o1` [Compound V-5] was 10 to 100 nM; that for `Nc1ncc(-c2ccc(C(=O)NCCN3CCCC3)cc2)nc1C(=O)Nc1ccccc1` [Compound I-46, 3-amino-N-phenyl-6-(4-(2-(pyrrolidin-1-yl)ethylcarbamoyl)phenyl) pyrazine-2-carboxamide] was 100 to 5000 nM.
The value for `CC(C)Oc1ccccc1-c1nnc(-c2nc(-c3ccc(C(=O)N(C)C)cc3)cnc2N)o1` [IA-108, 4-[5-amino-6-[5-(2-isopropoxyphenyl)-1,3,4-oxadiazol-2-yl]pyrazin-2-yl]-N,N-dimethyl-benzamide] was ≤ 10 nM; that for `Cn1c(NC(=O)c2nc(-c3ccc(C(=O)N4CCCNCC4)cc3)cnc2N)nc2ccccc21` [Compound V-7] was 100 to 5000 nM.
Regarding `CCC(C)S(=O)(=O)c1ccc(-c2cnc(N)c(-c3nnc(-c4ccc(CNC)cc4F)o3)n2)cc1` (stereo not drawn) [IA-338, 3-[5-[2-fluoro-4-(methylaminomethyl)phenyl]-1,3,4-oxadiazol-2-yl]-5-(4-sec-butylsulfonylphenyl)pyrazin-2-amine], the Ki is ≤ 10 nM.
For the molecule `CC(C)S(=O)(=O)c1ccc(-c2cnc(N)c(-c3nnc(-c4ccc(CNCC(C)(C)O)cc4F)o3)n2)cc1` [IA-348, 1-(4-(5-(3-amino-6-(4-(isopropylsulfonyl)phenyl)pyrazin-2-yl)-1,3,4-oxadiazol-2-yl)-3-fluorobenzylamino)-2-methylpropan-2-ol], the Ki is ≤ 10 nM.
Consider `CC(C)S(=O)(=O)c1ccc(-c2cnc(N)c(-c3nnc(-c4ccc(C(=N)N)cc4)o3)n2)cc1` [IA-70, 4-[5-[3-amino-6-(4-isopropylsulfonylphenyl)pyrazin-2-yl]-1,3,4-oxadiazol-2-yl]benzamidine], for which the Ki is ≤ 10 nM.
